This passage reports IC50 results from patent US20230174538A1, “Tricyclic heterocycles” (Merck Patent GmbH, priority 2020, published 2023).

In the assay the test system is YAP-TEAD interaction. Nature of the assay: SK-HEP-1 reporter assay (8xTEAD responsive elements driving NanoLuc luciferase). Type of assay: cell-based. The settings on record: Homo sapiens, SK-HEP1, SK-HEP-1 reporter assay. How it is done: To identify inhibitors of YAP-TEAD interaction, 8×TEAD responsive elements driving the NanoLuc® luciferase gene were stably integrated into SK-HEP-1 cells (ECACC #: 91091816).
For the assay, cells were treated in duplicates with the test compounds in a 10-point dose, with the top concentration starting at 30 μM (final concentration in assay). After a 24 hour incubation at 37° C., 95% rH, and 5% CO2, a luciferase substrate/lysis reagent mix (NanoGlo™, Promega) was added to the cells, allowing the quantification of cellular luciferase activity.
Cell Media: The cells were cultured in the following media: MEM, +10% FBS, +1× GlutaMAX, +1 mM Sodium-Pyruvate, +100 μM Non-essential amino acids, +0.1 mg/ml Hygromycin. The media used for the assay was: MEM (w/o Phenol Red), +10% FBS, +1× GlutaMAX, +1 mM Sodium-Pyruvate, +100 μM Non-essential amino acids, +0.5% Pen/Strep
Reagents: The reagents used are listed below:
Cell culture: The cells were examined using an inverted microscope to check for health and cell density. To dissociate adherent cells, the monolayer of cells was washed once with pre-warmed PBS. After removing the PBS, 3 ml pre-warmed Accutase® was added to a F75 flask, dispersed evenly and the flask was allowed to sit in incubator for ˜4-5 minutes.
When a single cell suspension was obtained, 7 ml of prewarmed growth media was added and resuspended with the cells. The cell suspension was transferred to a sterile 15 ml conical centrifuge tube, and spun for 5 min at 300×g, RT. The supernatant was discarded and the pellet was resuspended in 10 ml of pre-warmed growth media.
The total cell count was determined, and 20 μl of the desired cell number was added to each well of a 384 well plate using a Multidrop Combi. The plates were then incubated for 24 hours at 37° C., 95% rH, and 5% CO2.
Compound treatment: 24 hours after seeding, the cells were treated with compounds.
A 1:333 dilution of compounds, diluted in DMSO, was made to get a final concentration of 0.3% DMSO per well. To transfer the compounds to the assay plate, 120 nl was shot from Labcyte low dead volume plates to the cell plates containing 20 μl media/well with the ECHO 555 liquid handling system.
After treatment, the cells were fed with 20 μl fresh pre-warmed assay media using a Multidrop combi.
The assay plates were then incubated for another 24 h at 37° C., 95% rH, and 5% CO2.
Luciferase readout: 24 h after treatment, the plates were taken out of the incubator and were allowed to equilibrate to RT. 30 μl of NanoGlo® reagent was added to the plates in the dark. Plates were shaken for 20 min on a Teleshake (˜1500 rpm) in the dark. The luminescence was then measured using an EnVision microplate reader. The IC50 values were generated using Genedata Screener®.
(In general: Reporter assays use an easily measured gene product as a stand-in for the process of interest.)
For the molecule `Cn1cc2c3cc(C(=O)NC(CO)c4ccccn4)ccc3n(-c3ccc(C(F)(F)F)cc3)c2n1` (racemic) [Example 29, N-[2-hydroxy-1-(pyridin-2-yl)ethyl]-2-methyl-8-[4-(trifluoromethyl)phenyl]-2H,8H-pyrazolo[3,4-b]indole-5-carboxamide], the IC50 fell in the range of 100 to 10000 nM.

In the case of `COCc1noc(C(C)NC(=O)c2ccc3c(c2)c2cn(C)nc2n3-c2ccc(C(F)(F)F)cc2)n1` (centres unmarked) [Example B86, N-{1-[3-(methoxymethyl)-1,2,4-oxadiazol-5-yl]ethyl}-2-methyl-8-[4-(trifluoromethyl)phenyl]-2H,8H-pyrazolo[3,4-b]indole-5-carboxamide], the IC50 was 100 to 10000 nM.

For the molecule `Cn1cc2c3cc(C(=O)NCc4cc(C5CCC5)n[nH]4)ccc3n(-c3ccc(C(F)(F)F)cc3)c2n1` [Example B17, N-[(3-cyclobutyl-1H-pyrazol-5-yl)methyl]-2-methyl-8-[4-(trifluoro-methyl)phenyl]-2H,8H-pyrazolo[3,4-b]indole-5-carboxamide], the IC50 lay within 100 to 10000 nM.

As to `Cn1cc2c3cc(C(=O)NCCc4cc(O)n(C)n4)ccc3n(-c3ccc(C(F)(F)F)cc3)c2n1` [Example B38, N-[2-(5-hydroxy-1-methyl-1H-pyrazol-3-yl)ethyl]-2-methyl-8-[4-(trifluoromethyl)phenyl]-2H,8H-pyrazolo[3,4-b]indole-5-carboxamide], the IC50 was more than 10000 nM.

Molecule `Cn1cc2c3cc(C(=O)NC(c4cccnc4)C4CC4)ccc3n(-c3ccc(C(F)(F)F)cc3)c2n1` (centres unmarked) [Example B55, N-[cyclopropyl(pyridin-3-yl)methyl]-2-methyl-8-[4-(trifluoromethyl)phenyl]-2H,8H-pyrazolo[3,4-b]indole-5-carboxamide] yielded an IC50 of 10 to 100 nM.

The molecule `CC1COC(CO)CN1C(=O)c1ccc2c(c1)c1cn(C)nc1n2-c1ccc(C(F)(F)F)cc1` (centres unmarked) [Example B72, (5-methyl-4-{2-methyl-8-[4-(trifluoromethyl)phenyl]-2H,8H-pyrazolo[3,4-b]indole-5-carbonyl}morpholin-2-yl)methanol] showed an IC50 of 100 to 10000 nM.

`CN(Cc1conc1C1CC1)C(=O)c1ccc2c(c1)c1cn(C)nc1n2-c1ccc(C(F)(F)F)cc1` [Example B88, N-[(3-cyclopropyl-1,2-oxazol-4-yl)methyl]-N,2-dimethyl-8-[4-(trifluoromethyl)phenyl]-2H,8H-pyrazolo[3,4-b]indole-5-carboxamide] yielded an IC50 of more than 10000 nM.

On to `CN(Cc1noc(C2CC2)n1)C(=O)c1ccc2c(c1)c1cn(C)nc1n2-c1ccc(C(F)(F)F)cc1` [B137^], for which the concentration for half-maximal inhibition (IC50) was more than 10000 nM.

On to `Cn1cc2c3cc(C(=O)N[C@@H]4CCO[C@H]4c4cc[nH]n4)ccc3n(-c3ccc(C(F)(F)F)cc3)c2n1` [B122^], for which the IC50 was in the range of 10 to 100 nM.

`CC(CCn1cncn1)NC(=O)c1ccc2c(c1)c1cn(C)nc1n2-c1ccc(C(F)(F)F)cc1` (centres unmarked) [Example B90, 2-methyl-N-[4-(1H-1,2,4-triazol-1-yl)butan-2-yl]-8-[4-(trifluoromethyl)phenyl]-2H,8H-pyrazolo[3,4-b]indole-5-carboxamide] showed a half-inhibitory concentration (IC50) of 10 to 100 nM.

With `Cn1cc2c3cc(C(=O)NCc4conc4C4CCC4)ccc3n(-c3ccc(C(F)(F)F)cc3)c2n1` [Example B63, N-[(3-cyclobutyl-1,2-oxazol-4-yl)methyl]-2-methyl-8-[4-(trifluoromethyl)phenyl]-2H,8H-pyrazolo[3,4-b]indole-5-carboxamide], the IC50 is 100 to 10000 nM.

With `Cn1cc2c3cc(C(=O)NCCn4cnnc4C4CC4)ccc3n(-c3ccc(C(F)(F)F)cc3)c2n1` [Example B98, N-[2-(3-cyclopropyl-4H-1,2,4-triazol-4-yl)ethyl]-2-methyl-8-[4-(trifluoromethyl)phenyl]-2H,8H-pyrazolo[3,4-b]indole-5-carboxamide], the IC50 was 100 to 10000 nM.

As for `Cn1cc2c3cc(C(=O)N4CCC45CCCOCC5)ccc3n(-c3ccc(C(F)(F)F)cc3)c2n1` (centres unmarked) [B108^], the IC50 is more than 10000 nM.

Consider `Cn1cc2c3cc(C(=O)NCCc4c[nH]nn4)ccc3n(-c3ccc(C(F)(F)F)cc3)c2n1` [Example B11, 2-methyl-N-[2-(1H-1,2,3-triazol-4-yl)ethyl]-8-[4-(trifluoromethyl)phenyl]-2H,8H-pyrazolo[3,4-b]indole-5-carboxamide], for which the IC50 is 10 to 100 nM.

For `Cn1cc2c3cc(C(=O)N[C@@H]4[C@H](O)[C@@H]5CCC[C@@H]54)ccc3n(-c3ccc(C(F)(F)F)cc3)c2n1` (relative stereo) [Example B43, N-[(1R,5S,6S,7R)-7-hydroxy-bicyclo[3.2.0]heptan-6-yl]-2-methyl-8-[4-(trifluoromethyl)phenyl]-2H,8H-pyrazolo[3,4-b]indole-5-carboxamide], the IC50 is 100 to 10000 nM.

The molecule `Cc1noc(CC2(NC(=O)c3ccc4c(c3)c3cn(C)nc3n4-c3ccc(C(F)(F)F)cc3)CC2)n1` [Example B77, 2-methyl-N-{1-[(3-methyl-1,2,4-oxadiazol-5-yl)methyl]cyclopropyl}-8-[4-(trifluoromethyl)phenyl]-2H,8H-pyrazolo[3,4-b]indole-5-carboxamide] registered an IC50 of more than 10000 nM.

`Cn1cc2c3cc(C(=O)NC4CC(O)C45CCOCC5)ccc3n(-c3ccc(C(F)(F)F)cc3)c2n1` (centres unmarked) [Example B16, N-{3-hydroxy-7-oxaspiro[3.5]nonan-1-yl}-2-methyl-8-[4-(trifluoromethyl)phenyl]-2H,8H-pyrazolo[3,4-b]indole-5-carboxamide]: the IC50 lay in the range of 100 to 10000 nM.

In the case of `Cn1cc2c3cc(C(=O)N4CCC[C@@H]4CCCO)ccc3n(-c3ccc(C(F)(F)F)cc3)c2n1` (single isomer, unassigned) [Example B18], the IC50 was 100 to 10000 nM.

In turn, `CCn1cnnc1CNC(=O)c1ccc2c(c1)c1cn(C)nc1n2-c1ccc(C(F)(F)F)cc1` [B129^] displayed an IC50 of 100 to 10000 nM.

In the case of `Cn1cc2c3cc(C(=O)NC4C5CCOC5C4(C)C)ccc3n(-c3ccc(C(F)(F)F)cc3)c2n1` (centres unmarked) [Example B87, N-(7,7-dimethyl-2-oxabicyclo[3.2.0]heptan-6-yl}-2-methyl-8-[4-(trifluoromethyl)phenyl]-2H,8H-pyrazolo[3,4-b]indole-5-carboxamide], the IC50 lay in the range of 100 to 10000 nM.

Consider `Cn1cc2c3cc(C(=O)NC[C@H]4C[C@H](n5cncn5)C4)ccc3n(-c3ccc(C(F)(F)F)cc3)c2n1` [B140^], for which the IC50 is more than 10000 nM.

As to `COc1cc(CN(C)C(=O)c2ccc3c(c2)c2cn(C)nc2n3-c2ccc(C(F)(F)F)cc2)sn1` [B136^], the IC50 was more than 10000 nM.

The molecule `CCOC1CC(N(C)C(=O)c2ccc3c(c2)c2cn(C)nc2n3-c2ccc(C(F)(F)F)cc2)C1(C)C` (centres unmarked) [Example B99, N-(3-ethoxy-2,2-dimethylcyclobutyl)-N,2-dimethyl-8-[4-(trifluoromethyl)phenyl]-2H,8H-pyrazolo[3,4-b]indole-5-carboxamide] had an IC50 of more than 10000 nM.

`Cn1cc2c3cc(C(=O)NCC4=CCOCC4)ccc3n(-c3ccc(C(F)(F)F)cc3)c2n1` [Example B58, N-[(3,6-dihydro-2H-pyran-4-yl)methyl]-2-methyl-8-[4-(trifluoromethyl)phenyl]-2H,8H-pyrazolo[3,4-b]indole-5-carboxamide] returned an IC50 of 1 to 10 nM.

`Cn1cc2c3cc(C(=O)N4CCCC4c4ccc[nH]4)ccc3n(-c3ccc(C(F)(F)F)cc3)c2n1` (centres unmarked) [Example B13, 2-(1-{2-methyl-8-[4-(trifluoromethyl)-phenyl]-2H,8H-pyrazolo[3,4-b]indole-5-carbonyl}pyrrolidin-2-yl)-1H-pyrrole]: the IC50 fell in the range of 100 to 10000 nM.

In the case of `Cn1cc2c3cc(C(=O)NC(C4CC4)C4COCCO4)ccc3n(-c3ccc(C(F)(F)F)cc3)c2n1` (centres unmarked) [B115^], the IC50 was 100 to 10000 nM.

A word on the IC50: it is the midpoint of a concentration-inhibition curve.
